The results in this text go back to publication PMC7988029, “Growth optimization and identification of an ω-transaminase by a novel native PAGE activity staining method in a Bacillus sp. strain BaH isolated from Iranian soil” (AMB Express, 2021).

Molecules are shown by their SMILES. Like-named read-outs stand apart in the source and are kept apart here.

This assay has as its system T1, BaH-ω-TA.
T1 construct: gene omega-TA; native enzyme in unpurified crude extract of the wild-type strain; one activity band on native PAGE
Put plainly: acetophenone formation by HPLC, Michaelis-Menten non-linear fit. The format is biochemical, Bacillus sp. BaH. The conditions noted are these: 0.1 mM PLP, Britton-Robinson buffer pH 6, 15 % DMSO, 35 °C, 1 mg/mL crude extract, read-out: apparent Km.

`CC(=O)C(=O)O` [pyruvate]: the Km (70 mM (S)-MBA) was 17.3 mM. For the molecule `C[C@H](N)c1ccccc1` [(S)-MBA], the Michaelis constant (Km) (60 mM pyruvate) turned out to be 2.6 mM.

The Km is the concentration of substrate that gives half-maximal velocity.
